Measured values from US20040209959A1, “Congeners of acetaminophen and related compounds as substrates for fatty acid conjugation and their use in treatment of pain, fever and inflammation” (priority 2001, published 2004).

How the values were obtained:
[1] = system: AM404 production in brain homogenates; experiment: Inhibition of AM404 formation in rat brain homogenates; format: biochemical; conditions: 1 hour pre-incubation, p-aminophenol plus arachidonic acid each 100 μM
Method: (§3) Tissue homogenate experiments. The brain, liver, spinal cord and dorsal root ganglia from female Wistar-Hannover rats (250 g) were homogenised in a Tris buffer (10 mM, pH 7.6), containing EDTA (1 mM), to give 90-330 mg tissue ml^−1. We carried out experiments in aliquots of 200 μl homogenate at 37° C. as further explained in the text. The reactions were stopped by adding 1 ml ice-cold acetone containing 1 μM [^2H8]-anandamide. The samples were kept on ice until the acetone phase was evaporated in vacuo.

[2] = remark: listed apart in the source
Method: In vivo experiments. Acetaminophen ([…]) or vehicle (saline) at a volume of 2-3 ml was given to female Wistar-Hannover rats (200-300 g) by an intraperitoneal injection. Some rats were pretreated with PMSF (10 mg kg^−1) or vehicle (saline:PEG 6000; 1:10 w/w) given subcutaneously (2-3 ml) 20 min before administration of acetaminophen. Approximately 20 min after injection of acetaminophen, the animals were killed to collect brain, liver, spinal cord and arterial blood. […] PMSF (0.1 mM) and ascorbic acid (0.3 mM) were also present in the Tris buffer and added to the blood samples to prevent degradation of fatty acid amides and p-aminophenol, respectively.
Quantitative analyses. The extraction residues were reconstituted in 100 μl methanol except for p-aminophenol, for which 100 μl 0.5% acetic acid was used. The quantitative analyses were performed using a Perkin Elmer 200 liquid chromatography system with autosampler (Applied Biosystems), coupled to an API 3000 tandem mass spectrometer (Applied Biosystems/MDS-SCIEX). All mobile phases were water-methanol gradients, containing 0.5% acetic acid, and the flow rate was 200 μl min^−1 except for arachidonic acid where it was 400 μl min^−1.
AM404, arachidonoyldopamine, arachidonoylserotonin and anandamide.
p-Aminophenol. Sample aliquots of 2 μl were injected on a Genesis phenyl column (150×2.1 mm; Jones). The mobile flow was initially 97% water for 2 min. […] The electrospray ion source was set at 450° C. and used in the positive ion mode. The ion spray voltage and declustering potential were set to 4500 volts and 55 volts, respectively. M/z 109.9/64.6 with a collision energy of 31 volts was used for the quantitative determinations.

anandamide hydrolysis = experiment: Inhibition of [2H8]-anandamide hydrolysis in rat brain homogenates; format: biochemical; conditions: 1 hour pre-incubation, [2H8]-anandamide 10 μM
Method: as §3
Sample aliquots of 5 μl were injected on a Genesis C18 column (50×2.1 mm; Jones). The HPLC was operated isocratically at 20% water and 80% methanol. The electrospray ion source was operating in the negative ion mode at 370° C., the ion spray voltage was −3000 volts and the declustering potential was −120 volts. M/z 310.8/267.0 with a collision energy of −22 volts was used for the quantitative determinations.

[3] = target: T1, vanilloid receptors on vasodilator sensory nerves (Rattus norvegicus, UniProt O35433); experiment: Vasodilator effect in isolated rat mesenteric artery segments contracted with phenylephrine; conditions: for activation of vanilloid receptors on perivascular sensory nerves: FIG. 7; for relaxation of arterial segments contracted with phenylephrine: FIG. 7c; for effect on the vasodilator action of AM404: capsazepine 3 μM, ruthenium red 1 μM; for inhibition of the effect of capsaicin (antagonist action on vanilloid receptors): 1 mM acetaminophen or 100 μM p-aminophenol for 30 min; for vasorelaxation per se (agonist action on vanilloid receptors): p-aminophenol in the presence of ascorbic acid
T1 construct: from tissue; host or cells: mesenteric arteries from female Wistar-Hannover rats
Method: Recording of tension. Experiments were performed on mesenteric arteries from female Wistar-Hannover rats (250 g) as described (48). Briefly, the arteries were cut into ring segments and mounted in tissue baths, containing aerated physiological salt solution (5% CO2 and 95% O2; 37° C.; pH 7.4). […] We studied relaxant responses in preparations contracted with phenylephrine. When stable contractions were obtained, substances were added cumulatively to determine concentration-response relationships.
Calculations and statistics. Data are presented as means ±S.E.M. (vertical lines in figures), and n indicates the number of animals unless otherwise stated. GraphPad Prism 3.0 software was used for curve fitting (non-linear regressions) and calculations of pEC50 values. Mann-Whitney U-test or Student's t-test on log transformed values was used for statistical analysis. Statistical significance was accepted when P<0.05.

COX-1 = target: T2, COX-1 (Ovis aries, UniProt P05979); conditions: isolated enzyme preparation; 10 μM arachidonic acid
T2 sequence (P05979 25-600): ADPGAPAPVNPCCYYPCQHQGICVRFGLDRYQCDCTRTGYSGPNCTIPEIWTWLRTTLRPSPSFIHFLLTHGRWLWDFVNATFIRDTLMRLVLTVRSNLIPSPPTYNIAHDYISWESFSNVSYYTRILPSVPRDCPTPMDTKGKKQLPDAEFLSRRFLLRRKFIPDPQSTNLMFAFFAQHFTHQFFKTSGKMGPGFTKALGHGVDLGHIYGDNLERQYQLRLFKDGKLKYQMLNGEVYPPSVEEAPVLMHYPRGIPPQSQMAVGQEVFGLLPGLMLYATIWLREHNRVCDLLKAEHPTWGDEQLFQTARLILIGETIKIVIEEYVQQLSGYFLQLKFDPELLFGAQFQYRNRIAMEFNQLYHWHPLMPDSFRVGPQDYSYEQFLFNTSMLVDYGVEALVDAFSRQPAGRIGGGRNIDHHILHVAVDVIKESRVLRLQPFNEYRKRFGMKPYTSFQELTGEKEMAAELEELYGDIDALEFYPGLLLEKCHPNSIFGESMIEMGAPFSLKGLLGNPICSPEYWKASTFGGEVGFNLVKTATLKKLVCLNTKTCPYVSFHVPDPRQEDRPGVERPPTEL
Method: (§1) COX activity was measured as prostaglandin formation in the presence of 10 μM arachidonic acid.
(§2) COX-1 and COX-2 assays. COX-1 and COX-2 activity was determined in the presence of 10 μM arachidonic acid using a COX (ovine) inhibitor screening assay (Cayman). Drugs were incubated with the enzyme preparation 8 min before application of arachidonic acid. Prostaglandin formation was used as a measure of COX activity and quantified via enzyme immunoassay (EIA).

COX-2 = target: T3, COX-2 (Ovis aries, UniProt P79208); conditions: isolated enzyme preparation; 10 μM arachidonic acid
T3 sequence (P79208 17-603): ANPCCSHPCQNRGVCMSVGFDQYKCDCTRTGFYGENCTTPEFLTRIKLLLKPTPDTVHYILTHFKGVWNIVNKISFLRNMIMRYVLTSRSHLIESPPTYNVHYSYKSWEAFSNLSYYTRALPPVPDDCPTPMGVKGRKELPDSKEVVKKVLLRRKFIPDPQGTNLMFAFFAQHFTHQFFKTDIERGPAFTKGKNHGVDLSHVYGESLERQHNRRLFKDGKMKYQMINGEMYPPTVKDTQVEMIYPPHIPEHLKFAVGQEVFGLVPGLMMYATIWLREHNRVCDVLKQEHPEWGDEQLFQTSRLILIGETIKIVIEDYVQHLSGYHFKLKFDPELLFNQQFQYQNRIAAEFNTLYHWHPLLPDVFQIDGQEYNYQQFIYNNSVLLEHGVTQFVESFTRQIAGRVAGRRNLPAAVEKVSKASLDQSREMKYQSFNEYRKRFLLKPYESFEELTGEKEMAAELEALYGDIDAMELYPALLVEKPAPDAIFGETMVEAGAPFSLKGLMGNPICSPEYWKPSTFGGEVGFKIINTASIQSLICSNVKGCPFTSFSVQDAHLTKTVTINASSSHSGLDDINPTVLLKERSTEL
Method: as §1, §2

[4] = female, Wistar-Hannover, rat, pH 7.6
Method: as §3
Sample aliquots of 5 μl were injected on a Genesis C8 column (20×2.1 mm; Jones). Initially, the mobile flow was 25% water for 5.5 min. […]
p-Aminophenol. […] M/z 109.9/64.6 with a collision energy of 31 volts was used for the quantitative determinations. […]

[5] = PMSF 10 mg kg^−1 s.c. 20 min before acetaminophen

T1 sequence (O35433 whole entry): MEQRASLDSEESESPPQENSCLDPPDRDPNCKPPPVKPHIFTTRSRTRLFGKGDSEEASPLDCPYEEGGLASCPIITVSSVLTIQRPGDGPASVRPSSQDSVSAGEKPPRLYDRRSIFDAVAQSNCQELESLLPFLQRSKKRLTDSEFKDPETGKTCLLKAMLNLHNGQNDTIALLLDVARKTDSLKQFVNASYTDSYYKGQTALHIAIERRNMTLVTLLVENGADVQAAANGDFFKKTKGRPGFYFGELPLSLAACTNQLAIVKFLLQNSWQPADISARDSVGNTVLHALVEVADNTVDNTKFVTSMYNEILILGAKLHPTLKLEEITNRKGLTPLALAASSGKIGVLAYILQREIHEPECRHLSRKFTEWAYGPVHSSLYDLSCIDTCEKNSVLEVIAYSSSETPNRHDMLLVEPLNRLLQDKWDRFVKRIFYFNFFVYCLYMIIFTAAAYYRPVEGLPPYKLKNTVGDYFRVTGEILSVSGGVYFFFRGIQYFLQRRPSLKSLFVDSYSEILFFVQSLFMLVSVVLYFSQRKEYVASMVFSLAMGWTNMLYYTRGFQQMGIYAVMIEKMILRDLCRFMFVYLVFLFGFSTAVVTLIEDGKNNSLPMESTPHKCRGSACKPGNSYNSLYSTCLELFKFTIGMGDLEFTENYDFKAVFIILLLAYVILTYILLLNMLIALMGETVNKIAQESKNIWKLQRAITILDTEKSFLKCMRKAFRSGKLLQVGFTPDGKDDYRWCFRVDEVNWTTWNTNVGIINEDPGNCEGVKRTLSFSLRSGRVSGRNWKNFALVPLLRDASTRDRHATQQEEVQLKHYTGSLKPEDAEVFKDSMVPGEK

O=S(=O)(F)Cc1ccccc1 [PMSF, phenyl-methyl-sulphonylfluoride]
pEC50 for inhibition of the formation of AM404 [1]: 5.41±0.03
effect on formation of arachidonoyldopamine and arachidonoylserotonin (PMSF 100 μM added 1 hour before): almost abolished
effect on formation of AM404 in brain after acetaminophen [2, 5]: abolished
reduction of p-aminophenol content in brain after acetaminophen [2, 5]: 48%
pEC50 for inhibition of the hydrolysis of anandamide (anandamide hydrolysis): 5.28±0.07

CCCCC/C=C\C/C=C\C/C=C\C/C=C\CCCC(=O)NCCc1ccc(O)c(OC)c1 [arachidonoyl-3-methoxytyramine]
activation of vanilloid receptors on perivascular sensory nerves [3]: activators
relaxation of arterial segments contracted with phenylephrine [3]: concentration-dependent relaxation

CCCCC/C=C\C/C=C\C/C=C\C/C=C\CCCC(=O)OC(CO)CO [2-arachidonoylglycerol]
activation of vanilloid receptors on perivascular sensory nerves [3]: activators

NCCc1ccc(O)c(O)c1 [dopamine]
production of arachidonoyldopamine (brain homogenates, dopamine 100 μM plus arachidonic acid 100 μM, 1 hour): substantial amounts

CCCCCC=CCC=CCC=CCC=CCCCC(=O)Nc1ccc(O)cc1 [AM404, N-(4-hydroxyphenyl)-5,8,11,14-eicosatetraenamide]
effect on COX-1 activity (COX-1): concentration-dependently inhibited
effect on COX-2 activity (COX-2): concentration-dependently inhibited
EC50 [3]: 15.8 nM
relaxation of arteries pre-treated with capsaicin ([3]; capsaicin 1 μM for 30 min): unable to relax

NCCc1c[nH]c2ccc(O)cc12 [serotonin]
production of arachidonoylserotonin (brain homogenates, serotonin 100 μM plus arachidonic acid 100 μM, 1 hour): substantial amounts

N.N.N.N.N.N.N.N.N.N.N.N.N.N.[Cl-].[Cl-].[Cl-].[Cl-].[Cl-].[Cl-].[O-2].[O-2].[Ru+3].[Ru+3].[Ru+4] [ruthenium red]
effect on the vasodilator action of AM404 [3]: inhibited

CC(=O)Nc1ccc(O)cc1 [acetaminophen]
effect on COX-1 activity (COX-1): No effect
effect on COX-2 activity (COX-2): No effect
AM404 in brain, representative chromatogram of one animal ([2]; female, Wistar-Hannover, rat, in vivo, 20 min): 23.4 pmol/g
inhibition of the effect of capsaicin (antagonist action on vanilloid receptors) [3]: nor inhibited the effect of capsaicin
vasorelaxation per se (agonist action on vanilloid receptors) [3]: neither induced vasorelaxation per se
AM404 formation in brain homogenates ([4]; 100 μM): did not result in any detectable levels of AM404
AM404 in brain homogenates ([4]; 1 mM): 14 ± 2.6 pmol/g

Nc1ccc(O)cc1 [p-aminophenol]
effect on COX-1 activity (COX-1): No effect
effect on COX-2 activity (COX-2): No effect
inhibition of the effect of capsaicin (antagonist action on vanilloid receptors) [3]: nor inhibited the effect of capsaicin
vasorelaxation per se (agonist action on vanilloid receptors) [3]: neither induced vasorelaxation per se

CCCCC/C=C\C/C=C\C/C=C\C/C=C\CCCC(=O)OCC(O)CO (stereo not drawn) [1-arachidonoylglycerol]
activation of vanilloid receptors on perivascular sensory nerves [3]: activators

Oc1cc2c(cc1O)CN(C(=S)NCCc1ccc(Cl)cc1)CCC2 [capsazepine]
effect on the vasodilator action of AM404 [3]: inhibited

CCCCC/C=C\C/C=C\C/C=C\C/C=C\CCCC(=O)NCCc1ccc(O)cc1 [arachidonoyltyramine]
activation of vanilloid receptors on perivascular sensory nerves [3]: activators
relaxation of arterial segments contracted with phenylephrine [3]: concentration-dependent relaxation
